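These data come from cells grown in 96-well plates and exposed to compound for 48 hours at five concentrations. Abbreviation: GI50, concentration required for 50% inhibition of growth.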 Active and inactive are the calls of the source. No stated cut-off is given here; in the data, active = GI50 up to about 1.1 µM and inactive = higher.
Tests used:
Assay in all cases: NCI tumour cell line growth inhibition, 48 h
SK-MEL-5 = tested on: SK-MEL-5
OVCAR-4 = tested on: OVCAR-4
NCI-H522 = tested on: NCI-H522
HT-29 = tested on: HT-29
Malme-3M = tested on: Malme-3M
SK-MEL-2 = tested on: SK-MEL-2
IGROV-1 = tested on: IGROV-1
MOLT-4 = tested on: MOLT-4
SR = tested on: SR
CCRF-CEM = tested on: CCRF-CEM
CAKI-1 = tested on: CAKI-1
HOP-62 = tested on: HOP-62
SF-295 = tested on: SF-295
OVCAR-8 = tested on: OVCAR-8
HL-60 = tested on: HL-60
COLO 205 = tested on: COLO 205
ACHN = tested on: ACHN
OVCAR-3 = tested on: OVCAR-3

SMILES	GI50 (SK-MEL-5)	GI50 (OVCAR-4)	GI50 (NCI-H522)	GI50 (HT-29)	GI50 (Malme-3M)	GI50 (SK-MEL-2)	GI50 (IGROV-1)	GI50 (MOLT-4)	GI50 (SR)	GI50 (CCRF-CEM)	GI50 (CAKI-1)	GI50 (HOP-62)	GI50 (SF-295)	GI50 (OVCAR-8)	GI50 (HL-60)	GI50 (COLO 205)	GI50 (ACHN)	GI50 (OVCAR-3)
COc1ccc(S(=O)(=O)NNS(C)(=O)=O)cc1OC	> 100 µM (inactive)	> 100 µM (inactive)	> 100 µM (inactive)	> 100 µM (inactive)	> 100 µM (inactive)	> 100 µM (inactive)	> 100 µM (inactive)	> 100 µM (inactive)	> 100 µM (inactive)	> 100 µM (inactive)	> 100 µM (inactive)	> 100 µM (inactive)	> 100 µM (inactive)	> 100 µM (inactive)	> 100 µM (inactive)	> 100 µM (inactive)	> 100 µM (inactive)	–
CCOC(=O)C1=C(C)N(Cc2ccccc2)C(=O)C1CC#N (centres undefined)	–	47.1 µM (inactive)	–	> 100 µM (inactive)	–	> 100 µM (inactive)	> 100 µM (inactive)	55.3 µM (inactive)	49.8 µM (inactive)	31.6 µM (inactive)	> 100 µM (inactive)	> 100 µM (inactive)	> 100 µM (inactive)	83.9 µM (inactive)	26.7 µM (inactive)	> 100 µM (inactive)	> 100 µM (inactive)	> 100 µM (inactive)
OC1=CN=COc2ccccc21	–	> 100 µM (inactive)	–	> 100 µM (inactive)	> 100 µM (inactive)	> 100 µM (inactive)	> 100 µM (inactive)	> 100 µM (inactive)	–	> 100 µM (inactive)	–	> 100 µM (inactive)	> 100 µM (inactive)	> 100 µM (inactive)	> 100 µM (inactive)	> 100 µM (inactive)	> 100 µM (inactive)	> 100 µM (inactive)
O=C(Cc1ccccc1)NS(=O)(=O)c1ccccc1	–	> 100 µM (inactive)	> 100 µM (inactive)	> 100 µM (inactive)	> 100 µM (inactive)	> 100 µM (inactive)	> 100 µM (inactive)	> 100 µM (inactive)	> 100 µM (inactive)	> 100 µM (inactive)	> 100 µM (inactive)	> 100 µM (inactive)	> 100 µM (inactive)	> 100 µM (inactive)	> 100 µM (inactive)	> 100 µM (inactive)	> 100 µM (inactive)	> 100 µM (inactive)
CC(=O)C1CC2(c3ccccc3)C(=O)c3ccccc3N2O1 (centres undefined)	> 100 µM (inactive)	> 100 µM (inactive)	> 100 µM (inactive)	> 100 µM (inactive)	> 100 µM (inactive)	–	> 100 µM (inactive)	> 100 µM (inactive)	> 100 µM (inactive)	> 100 µM (inactive)	–	> 100 µM (inactive)	> 100 µM (inactive)	> 100 µM (inactive)	> 100 µM (inactive)	> 100 µM (inactive)	> 100 µM (inactive)	–
Nc1ccc(C(=O)N/C(=C\c2ccc3c(c2)OCO3)c2nc3c(O)nc(S)nc3[nH]2)cc1	> 100 µM (inactive)	> 100 µM (inactive)	> 100 µM (inactive)	> 100 µM (inactive)	> 100 µM (inactive)	> 100 µM (inactive)	> 100 µM (inactive)	> 100 µM (inactive)	> 100 µM (inactive)	> 100 µM (inactive)	> 100 µM (inactive)	–	> 100 µM (inactive)	> 100 µM (inactive)	–	> 100 µM (inactive)	> 100 µM (inactive)	> 100 µM (inactive)
CC(=O)N(C(C)=O)c1c(N)n(C)c(=O)[nH]c1=O	> 100 µM (inactive)	> 100 µM (inactive)	–	> 100 µM (inactive)	> 100 µM (inactive)	> 100 µM (inactive)	> 100 µM (inactive)	> 100 µM (inactive)	–	> 100 µM (inactive)	> 100 µM (inactive)	–	> 100 µM (inactive)	> 100 µM (inactive)	> 100 µM (inactive)	> 100 µM (inactive)	> 100 µM (inactive)	> 100 µM (inactive)
CN1COCc2cc3cc4c(cc3nc21)OCCO4	39.5 µM (inactive)	> 100 µM (inactive)	> 100 µM (inactive)	> 100 µM (inactive)	30 µM (inactive)	> 100 µM (inactive)	55 µM (inactive)	11.5 µM (inactive)	–	81.7 µM (inactive)	94.6 µM (inactive)	> 100 µM (inactive)	> 100 µM (inactive)	> 100 µM (inactive)	–	> 100 µM (inactive)	> 100 µM (inactive)	–
COC1=C(C(=O)OC(C)(C)C)[C@]2(C)C(C(=O)OC(C)(C)C)C(OC)=C(C(=O)OC(C)(C)C)[C@]2(C)C1C(=O)OC(C)(C)C (some centres undefined)	35.1 µM (inactive)	97.7 µM (inactive)	43.8 µM (inactive)	63.2 µM (inactive)	> 100 µM (inactive)	> 100 µM (inactive)	> 100 µM (inactive)	33.9 µM (inactive)	33.6 µM (inactive)	73.8 µM (inactive)	71.3 µM (inactive)	> 100 µM (inactive)	83.4 µM (inactive)	> 100 µM (inactive)	24.9 µM (inactive)	60.4 µM (inactive)	69.3 µM (inactive)	29.3 µM (inactive)
CCOC(=O)C(C)(C)Oc1ccc2c(-c3ccc(Cl)cc3)cc(=O)oc2c1	74.8 µM (inactive)	> 100 µM (inactive)	–	> 100 µM (inactive)	> 100 µM (inactive)	> 100 µM (inactive)	> 100 µM (inactive)	> 100 µM (inactive)	> 100 µM (inactive)	> 100 µM (inactive)	–	> 100 µM (inactive)	> 100 µM (inactive)	> 100 µM (inactive)	> 100 µM (inactive)	> 100 µM (inactive)	> 100 µM (inactive)	> 100 µM (inactive)
CC1SC2=NC3=C(c4ccccc4C3=O)C(c3ccc(F)cc3)N2C1=O (centres undefined)	> 100 µM (inactive)	42.5 µM (inactive)	26.5 µM (inactive)	> 100 µM (inactive)	> 100 µM (inactive)	> 100 µM (inactive)	> 100 µM (inactive)	> 100 µM (inactive)	–	> 100 µM (inactive)	> 100 µM (inactive)	> 100 µM (inactive)	> 100 µM (inactive)	> 100 µM (inactive)	> 100 µM (inactive)	> 100 µM (inactive)	> 100 µM (inactive)	> 100 µM (inactive)
Nc1ccccc1[S+]([O-])c1ccccc1 (centres undefined)	> 100 µM (inactive)	> 100 µM (inactive)	> 100 µM (inactive)	–	> 100 µM (inactive)	> 100 µM (inactive)	> 100 µM (inactive)	> 100 µM (inactive)	–	> 100 µM (inactive)	–	> 100 µM (inactive)	> 100 µM (inactive)	> 100 µM (inactive)	> 100 µM (inactive)	> 100 µM (inactive)	> 100 µM (inactive)	> 100 µM (inactive)
Nc1ccc(Nc2nc(F)nc(-c3c4ccccc4c4n3CCS4)n2)cc1	13.1 µM (inactive)	15 µM (inactive)	14 µM (inactive)	–	14.5 µM (inactive)	14.1 µM (inactive)	12.4 µM (inactive)	11.2 µM (inactive)	–	6.56 µM (inactive)	11 µM (inactive)	16 µM (inactive)	15.7 µM (inactive)	16.8 µM (inactive)	–	19.1 µM (inactive)	12.7 µM (inactive)	19.3 µM (inactive)
Cc1cc(Cl)ccc1NC1=NC(=O)C(CC(=O)Nc2ccc([N+](=O)[O-])cc2[N+](=O)[O-])S1 (centres undefined)	15.6 µM (inactive)	19.2 µM (inactive)	–	37 µM (inactive)	26.1 µM (inactive)	20.5 µM (inactive)	32.3 µM (inactive)	19.4 µM (inactive)	–	23.4 µM (inactive)	26.3 µM (inactive)	31.6 µM (inactive)	22.9 µM (inactive)	34.1 µM (inactive)	–	36.6 µM (inactive)	25.1 µM (inactive)	23.6 µM (inactive)
CCC(C)CC(C)CC(C)/C=C(\C)C1=C(C)CC(C)(O)O1 (centres undefined)	92.5 µM (inactive)	–	42.2 µM (inactive)	93.8 µM (inactive)	–	–	> 100 µM (inactive)	35.7 µM (inactive)	–	52.6 µM (inactive)	79.8 µM (inactive)	–	–	69.7 µM (inactive)	23.7 µM (inactive)	> 100 µM (inactive)	87.5 µM (inactive)	–
C[C@@H]1C2=CC[C@@]3(C)C(CCC3[C@H](C)[C@H]3C[C@@]4(C)O[C@@](c5cccnc5)(O3)OC4(C)C)[C@@H]2C2OC2[C@@]12CCC(=O)O2 (some centres undefined)	33 µM (inactive)	–	29.3 µM (inactive)	34.6 µM (inactive)	37.4 µM (inactive)	25.2 µM (inactive)	76.6 µM (inactive)	–	9.4 µM (inactive)	31 µM (inactive)	27.6 µM (inactive)	66.7 µM (inactive)	31.2 µM (inactive)	32.4 µM (inactive)	17 µM (inactive)	30 µM (inactive)	46.5 µM (inactive)	24.1 µM (inactive)
COC(=O)[C@@]12OC[C@]34C([C@@H](O)C1O)[C@@]1(C)CC(=O)C(O)=C(C)C1C[C@H]3OC(=O)[C@H](OC(=O)/C=C(/c1ccccc1)C(F)(F)F)[C@H]42 (some centres undefined)	3.28 µM (inactive)	6.31 µM (inactive)	2.42 µM (inactive)	2.18 µM (inactive)	1.16 µM (inactive)	8.26 µM (inactive)	2.16 µM (inactive)	0.998 µM (active)	0.655 µM (active)	3.88 µM (inactive)	7.59 µM (inactive)	5.96 µM (inactive)	4.18 µM (inactive)	10.5 µM (inactive)	0.363 µM (active)	6.67 µM (inactive)	4.21 µM (inactive)	–

From ChEMBL document CHEMBL1201862, “PubChem BioAssay data set” (2004)
